The text below walks through data of PMC11012799 (Molecules, 2024).

≈ marks a conversion by molar mass, not a printed value. Structures can show the parent of a compound that is named as a salt. Where two headings read alike, the source gives them in different places. Where only a bound is given, the exact number is not on record here.

The subject of assay [1] is HeLa cells. Put plainly: cells. The following applies: for IC50: read-out: IC50 (µM) HeLa; for selectivity index (SI) HeLa: efficacy against HeLa versus normal fibroblasts L929, SI > 1.0 = greater efficacy against cancer cells. In kind it is cell-based, human. How it is done: (§1) Considering our previous research and the literature reports on the antitumor activity of aziridine derivatives, aziridine phosphines (1–4) and aziridine phosphine oxides (5–9) were tested to investigate their potential anticancer activity. The in vitro effects on cell viability were assessed using the 3-(4,5-dimethylthiazol-2-yl)-2,5-diphenyltetrazolium bromide (MTT) assay on non-tumorigenic murine fibroblasts (L929) as well as two cancer cell lines: human cervical epithelioid carcinoma (HeLa) cells and endometrial adenocarcinoma (Ishikawa) cells.
(§2) Cell viability inhibition: The in vitro effects on cell viability were determined using the 3-(4,5-dimethylthiazol-2-yl)-2,5-diphenyltetrazolium bromide (MTT) assay on non-tumorigenic murine fibroblasts L929 (ATTC®—CCL-1) as well as two cancer cell lines: human cervical epithelioid carcinoma HeLa cells (ATTC®—CCL-2™) and endometrial adenocarcinoma Ishikawa cells (ECACC 99040201). Cells were cultured on 96-well microplates at a density of 1 × 10^4 cells/well following the international in Dulbecco’s Modified Eagle’s Medium (DMEM, Biowest) supplemented with 10% fetal bovine serum (FBS, Biowest, Nuaillé, France), 100 U/mL of penicillin, and 100 μg/mL of streptomycin (Biowest, Nuaillé, France). After overnight incubation at 37 °C and 5% CO2, the growth medium was removed and 100 μL of fresh media with two-fold dilutions of the tested compounds at concentrations of 3.125–100 μM were added. […] Untreated cells in medium were used as a positive control, while a clear culture medium served as a negative control.

Assay [2] has as its system Ishikawa cells. Put plainly: cells. Format: cell-based, human. The following applies: for IC50: read-out: IC50 (µM) Ishikawa; for selectivity index (SI) Ishikawa: efficacy against Ishikawa versus normal fibroblasts L929, SI > 1.0 = greater efficacy against cancer cells. How it is done:
as §1, §2

Assay [3] has as its system Escherichia coli NCTC 8196. Put plainly: MIC, two-fold microdilution (EUCAST), E. coli reference strain. Format: cell-based. The following applies: read-out: MIC (µM) Escherichia coli NCTC 8196. The text has this:
(§3) A panel of reference bacteria, including Escherichia coli NCTC 8196, Staphylococcus aureus ATCC 6538, Klebsiella pneumoniae ATCC 13883, and Pseudomonas aeruginosa NCTC 6749, was used to assess the antibacterial activity of the nine tested aziridine phosphines (1–4) and aziridine phosphine oxides (5–9). The two-fold microdilution method, following EUCAST guidelines, was used to determine a minimal inhibitory concentration (MIC) of each compound, as presented in Table S1.
(§4) Antibacterial activity: The in vitro antibacterial activity of nine tested aziridine phosphines (1–4) and aziridine phosphine oxides (5–9) was evaluated against reference bacterial strains (E. coli NCTC 8196, S. aureus ATCC 6538, K. pneumoniae ATCC 13883, P. aeruginosa NCTC 6749) and 12 S. aureus clinical isolates, including two methicillin-resistant isolates (MRSA, D15 and D17) obtained from infected patients hospitalized at the Oncological Hospital in Lodz (Poland). All strains were kept frozen at −80 °C in Tryptic Soy Broth with 15% glycerol. The minimal inhibitory concentration (MIC) is defined as the lowest concentration of the compound that prevents visible growth of bacteria using the microdilution method followed the EUCAST guidelines. Each compound was added to 96-well microplates in two-fold dilutions at concentrations from 3.125 to 100 μM in Mueller–Hinton broth. […] Bacterial culture was added into wells at a density of 5 × 10^5 CFU mL^−1, and plates were incubated at 37 °C for 18 h. As a positive control, an untreated bacterial culture was used, and a clear culture medium served as a negative control. The optical density at OD600 was measured using the SpectraMax i3 Multi-Mode Platform (Molecular Devices, San Jose, CA, USA). Ciprofloxacin hydrochloride (CIP, Sigma-Aldrich, Darmstadt, Germany) was used as a reference antimicrobial drug.

Assay [4] concerns Pseudomonas aeruginosa NCTC 6749. Put plainly: MIC, two-fold microdilution (EUCAST), P. aeruginosa reference strain. The note with it: read-out: MIC (µM) Pseudomonas aeruginosa NCTC 6749. Format: cell-based.
From the text: as §3, §4
For orientation: In broth dilution the organism is exposed to a series of concentrations in liquid medium.

Assay [5] has as its system L929 cells. Put plainly: cells. In kind it is cell-based, murine. The following applies: read-out: IC50 (µM) L929. Here is the method:
as §1, §2

Assay [6] concerns Klebsiella pneumoniae ATCC 13883. Put plainly: MIC, two-fold microdilution (EUCAST), K. pneumoniae reference strain. The following applies: read-out: MIC (µM) Klebsiella pneumoniae ATCC 13883. In kind it is cell-based.
From the text: as §3, §4

For assay [7], the system named is Staphylococcus aureus ATCC 6538. Put plainly: MIC, two-fold microdilution (EUCAST), S. aureus reference strain. Format: cell-based. The note with it: read-out: MIC (µM) Staphylococcus aureus ATCC 6538.
From the text: as §3, §4

Assay [8] concerns clinical S. aureus strains. Put plainly: MIC, microdilution, 12 clinical S. aureus strains. In kind it is cell-based, Staphylococcus aureus. The following applies: panel of 12 clinical isolates (naso-pharynx, ulcers/furuncles, bones), highest tested concentration 100 µM.
From the text: as §3, §4

The mark [9] stands for this setting: Escherichia coli, NCTC8196, 18 h.
Setting [10] is: Pseudomonas aeruginosa, NCTC6749, 18 h.
[11] abbreviates: Klebsiella pneumoniae, ATCC13883, 18 h.
Setting [12] is: Staphylococcus aureus, ATCC6538, 18 h.
Setting [13] is: MTT, 24 h treatment, IC50 ± SD, three independent experiments.
The mark [14] stands for this setting: tested range 3.125–100 µM, 37 °C, 18 h.

On to `CC(C)[C@@H]1CN1c1ccccc1P(c1ccccc1)c1ccccc1` [Compound 1], for which the IC50 in assay [1] (Homo sapiens, 24 h) is above 100 µM; in assay [2] (Homo sapiens, Ishikawa, 24 h) it was 13.9 ± 7.1 µM; in assay [5] (Mus musculus, L929, 24 h), 68.1 ± 11.2 µM. In addition, the “selectivity index (SI) HeLa” value in assay [1] is listed as below 1. The “selectivity index (SI) Ishikawa” value in assay [2] turned out to be 4.9. In addition, the minimal inhibitory concentration (MIC) in assay [3] (setting [9]) is above 100 µM; in assay [4] (setting [10]) it was above 100 µM; in assay [6] (setting [11]) it was above 100 µM; in assay [7] (setting [12]), 50 µM (≈ 17.3 µg/mL).

Consider `O=C(O)c1cn(C2CC2)c2cc(N3CCNCC3)c(F)cc2c1=O` [CIP, Ciprofloxacin hydrochloride, reference compound], for which the minimum inhibitory concentration (MIC) was found to be 0.04 µM in assay [3] (Escherichia coli, NCTC8196, tested range 3.125–100 µM, 37 °C, 18 h); 2.5 µM in assay [4] (Pseudomonas aeruginosa, NCTC6749, tested range 3.125–100 µM, 37 °C, 18 h); 0.2 µM in assay [6] (Klebsiella pneumoniae, ATCC13883, tested range 3.125–100 µM, 37 °C, 18 h); 1.6 µM in assay [7] (Staphylococcus aureus, ATCC6538, tested range 3.125–100 µM, 37 °C, 18 h).

In the case of “(2S)-2-diphenylphosphinoyl-2-phenylaziridine [Compound 9]”, the IC50 was 48.8 ± 12.3 µM in assay [1] (setting [13]), above 100 µM in assay [2] (setting [13]) and above 100 µM in assay [5] (setting [13]). Also, the MIC in assay [3] (setting [14]) is above 100 µM; in assay [4] (setting [14]) it was above 100 µM; in assay [6] (setting [14]) it was above 100 µM; in assay [7] (setting [14]), 50 µM.

With `O=P(c1ccccc1)(c1ccccc1)c1ccccc1N1C[C@@H]1c1ccccc1` [Compound 8], the half-maximal inhibitory concentration (IC50) is 19.6 ± 3.2 µM in assay [1] (Homo sapiens, 24 h); 23.4 ± 7.6 µM in assay [2] (Homo sapiens, Ishikawa, 24 h); 17 ± 4.4 µM in assay [5] (Mus musculus, L929, 24 h). Moreover, the “selectivity index (SI) HeLa” value in assay [1] is below 1. The “selectivity index (SI) Ishikawa” value in assay [2] is on record as below 1. Moreover, the minimum inhibitory concentration (MIC) is above 100 µM in assay [3] (setting [9]), above 100 µM in assay [4] (setting [10]), above 100 µM in assay [6] (setting [11]) and 50 µM (≈ 19.8 µg/mL) in assay [7] (setting [12]).

Regarding `c1ccc([C@H]2CN2c2ccccc2P(c2ccccc2)c2ccccc2)cc1` [Compound 4], the IC50 is 39.2 ± 6.7 µM in assay [1] (Homo sapiens, 24 h); above 100 µM in assay [2] (Homo sapiens, Ishikawa, 24 h); 22 ± 3.4 µM in assay [5] (Mus musculus, L929, 24 h). Further, in assay [1], the “selectivity index (SI) HeLa” value is below 1. For the same compound, the “selectivity index (SI) Ishikawa” value in assay [2] is below 1. In addition, the MIC in assay [3] (setting [9]) is above 100 µM; in assay [4] (setting [10]) it was above 100 µM; in assay [6] (setting [11]), above 100 µM; in assay [7] (setting [12]), 50 µM (≈ 19 µg/mL).

As to `CC(C)[C@H]1CN1c1ccccc1P(c1ccccc1)c1ccccc1` [Compound 2], the IC50 in assay [1] (Homo sapiens, 24 h) is above 100 µM; in assay [2] (Homo sapiens, Ishikawa, 24 h) it was 14.8 ± 6.5 µM; in assay [5] (Mus musculus, L929, 24 h), above 100 µM. In addition, the “selectivity index (SI) Ishikawa” value in assay [2] is reported as above 6.7. Moreover, the MIC in assay [3] (setting [9]) was above 100 µM; in assay [4] (setting [10]), above 100 µM; in assay [6] (setting [11]) it was above 100 µM; in assay [7] (setting [12]), 50 µM (≈ 17.3 µg/mL).

Take `CC(C)C[C@H]1CN1c1ccccc1P(c1ccccc1)c1ccccc1` [Compound 3]: the 50% inhibitory concentration (IC50) is 30.3 ± 4.5 µM in assay [1] (Homo sapiens, 24 h); above 100 µM in assay [2] (Homo sapiens, Ishikawa, 24 h); above 100 µM in assay [5] (Mus musculus, L929, 24 h). For the same compound, in assay [1], the “selectivity index (SI) HeLa” value is reported as above 3.3. Further, the MIC was above 100 µM in assay [3] (setting [9]), above 100 µM in assay [4] (setting [10]), above 100 µM in assay [6] (setting [11]) and 50 µM (≈ 18 µg/mL) in assay [7] (setting [12]).

For `N.N.[Cl][Pt][Cl]` [CisPt, cisplatin, reference compound], the concentration for half-maximal inhibition (IC50) in assay [1] (setting [13]) was 10.4 ± 4.4 µM; in assay [2] (setting [13]), 17.3 ± 5.2 µM; in assay [5] (setting [13]), 26.2 ± 7.5 µM.

As for `CC(C)[C@H]1CN1c1ccccc1P(=O)(c1ccccc1)c1ccccc1` [Compound 6], the 50% inhibitory concentration (IC50) in assay [1] (Homo sapiens, 24 h) is 40.7 ± 11.1 µM; in assay [2] (Homo sapiens, Ishikawa, 24 h), 16.6 ± 2.5 µM; in assay [5] (Mus musculus, L929, 24 h) it was 13.7 ± 3.1 µM. For the same compound, the “selectivity index (SI) HeLa” value in assay [1] is given as below 1. Moreover, the “selectivity index (SI) Ishikawa” value in assay [2] was below 1. Besides, the minimum inhibitory concentration (MIC) is above 100 µM in assay [3] (setting [9]); above 100 µM in assay [4] (setting [10]); 100 µM (≈ 36.1 µg/mL) in assay [8] (Staphylococcus aureus); 100 µM (≈ 36.1 µg/mL) in assay [8]; above 100 µM in assay [6] (setting [11]); 50 µM (≈ 18.1 µg/mL) in assay [7] (setting [12]).

One may read the IC50 as the concentration that inhibits the measured activity by half. As usually defined, the MIC is the least concentration at which growth counts as inhibited.
